Where two headings read alike, the source gives them in different places.
What was measured:
[1] = molecular target: T1, C3H polypeptide (CYP98A3) (Arabidopsis thaliana, UniProt O22203); experiment: in vitro C3H assay with microsomes from yeast expressing CYP98A3
T1 sequence (O22203 1-508): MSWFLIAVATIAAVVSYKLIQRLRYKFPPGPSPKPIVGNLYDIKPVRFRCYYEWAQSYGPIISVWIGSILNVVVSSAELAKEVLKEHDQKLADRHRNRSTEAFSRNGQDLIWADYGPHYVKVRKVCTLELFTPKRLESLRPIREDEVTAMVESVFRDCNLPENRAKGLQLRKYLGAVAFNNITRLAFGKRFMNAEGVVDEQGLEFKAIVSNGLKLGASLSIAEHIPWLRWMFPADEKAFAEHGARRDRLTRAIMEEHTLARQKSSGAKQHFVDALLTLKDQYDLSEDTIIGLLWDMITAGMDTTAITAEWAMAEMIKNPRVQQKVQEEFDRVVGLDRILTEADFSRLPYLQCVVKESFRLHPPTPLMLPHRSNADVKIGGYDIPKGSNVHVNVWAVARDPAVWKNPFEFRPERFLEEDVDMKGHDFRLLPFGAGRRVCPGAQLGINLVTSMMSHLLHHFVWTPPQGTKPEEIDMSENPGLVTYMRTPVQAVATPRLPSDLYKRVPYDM
Description: For C3H assays, an NADPH regenerating system consisting of 1 mM NADP^+, 10 mM glucose-6-phosphate, and 1 unit glucose-6-phosphate dehydrogenase was pre-incubated at 30 C for 5 min to permit the generation of NADPH in the presence of one of the putative C3H substrates in a final volume of 400 μL of assay buffer. Assays were initiated by the addition of 100 μL of microsomes and were allowed to incubate for 60 min at 30C before being terminated by boiling. Assays were clarified by centrifugation for 20 min at 13,000 ×g, and were analyzed directly by HPLC on a Microsorb-MV C-18 column (Rainin, Woburn Mass.) using a gradient of solvent A (1.0% acetic acid in water) and solvent B (acetonitrile; 0 to 10% B in 5 min, 10 to 25% B in 25 min; flow rate 1 mL min^−1). C3H reaction products were quantified using UV detection (caffeic acid, 322 nm; caffeyl aldehyde, 340 nm; caffeic acid methyl ester, 324 nm). Assays conducted using microsomes isolated from yeast transformed with pYeDP60 served as negative controls. The apparent Km for p-coumarate methyl ester was determined using triplicate assays analyzed by the Eadie-Hofstee method(Cornish-Bowden, 1995).
To experimentally address these issues, C3H-containing microsomes were prepared for use in in vitro assays of enzymatic activity.

F5H = molecular target: T2, F5H (Arabidopsis thaliana, UniProt Q42600); conditions: cited from earlier work
T2 construct: host or cells: yeast
T2 sequence (Q42600 1-520): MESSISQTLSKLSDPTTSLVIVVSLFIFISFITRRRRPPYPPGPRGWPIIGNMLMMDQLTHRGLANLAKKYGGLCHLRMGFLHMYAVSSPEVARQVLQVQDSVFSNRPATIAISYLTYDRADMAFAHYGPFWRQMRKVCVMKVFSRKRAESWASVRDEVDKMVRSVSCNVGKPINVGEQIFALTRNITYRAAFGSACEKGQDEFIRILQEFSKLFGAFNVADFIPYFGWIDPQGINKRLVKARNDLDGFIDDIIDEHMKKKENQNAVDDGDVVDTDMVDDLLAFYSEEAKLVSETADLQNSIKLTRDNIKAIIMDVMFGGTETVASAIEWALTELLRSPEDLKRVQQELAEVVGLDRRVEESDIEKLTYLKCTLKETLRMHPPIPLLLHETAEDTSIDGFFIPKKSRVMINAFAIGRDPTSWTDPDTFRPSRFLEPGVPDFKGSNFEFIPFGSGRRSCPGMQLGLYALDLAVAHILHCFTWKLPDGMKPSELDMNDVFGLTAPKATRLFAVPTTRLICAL

[2] = molecular target: T1, C3H polypeptide (CYP98A3)
Description: WAT11 cells were transformed with pYeDP60, pYeDP60-REF8, and pYeDP60-ref8 (Gietz et al., 1992), cultured and then induced with galactose as described previously (Urban et al., 1994). For in vivo measurements of enzyme activity, cells were grown in media supplemented with 5 mM p-coumaric acid. At the end of the incubation period the medium was extracted with ethylacetate, and analyzed by HPLC as described above.
Finally, WAT11 yeast carrying the control vector and the YeDP60-REF8 vector were assayed for C3H polypeptide activity in vivo by adding p-coumarate directly to the medium of galactose-induced yeast cultures.

[3] = yeast microsomes, NADPH regenerating system, 60 min, 30 C, HPLC

## O=C(/C=C/c1ccc(O)cc1)O[C@@H]1O[C@H](CO)[C@@H](O)[C@H](O)[C@H]1O [1-O-p-coumaroyl—D-glucose]
[1]; [3]
  activity of C3H toward substrate: no activity

## COc1cc(/C=C/C=O)ccc1O [coniferaldehyde]
F5H; substrate of F5H
  Vmax: 5 pKat mg^−1
F5H; substrate of F5H, read-out: Km
  Km: 1 µM

## COc1cc(/C=C/CO)ccc1O [coniferyl alcohol]
F5H; substrate of F5H
  Vmax: 6 pKat mg^−1
F5H; substrate of F5H, read-out: Km
  Km: 3 µM

## COc1cc(/C=C/C(=O)O)ccc1O [ferulate]
[1]; [3]
  activity of C3H toward substrate: No activity
F5H; ferulate hydroxylation by F5H
  Km: 1000 µM

## O=C/C=C/c1ccc(O)cc1 [p-coumaraldehyde]
[1]; [3]
  activity of C3H toward substrate: Levels of activity comparable to those seen with p-coumarate

## O=C(O)/C=C/c1ccc(O)cc1 [p-coumarate]
[1]
  activity of C3H toward substrate: so low that it precluded detailed kinetic analysis
[2]
  hydroxylation of substrate added to yeast medium (product caffeic acid): capable of hydroxylating

## CC(C)(COP(=O)(O)OP(=O)(O)OC[C@H]1O[C@@H](n2cnc3c(N)ncnc32)[C@H](O)[C@@H]1OP(=O)(O)O)[C@@H](O)C(=O)NCCC(=O)NCCSC(=O)/C=C/c1ccc(O)cc1 [p-coumaroyl CoA]
[1]; [3]
  activity of C3H toward substrate: no activity

## COC(=O)/C=C/c1ccc(O)cc1 [p-coumaroyl methyl ester]
[1]
  activity of C3H toward substrate: much higher levels of activity
[1]; read-out: apparent Km, substrate of C3H, yeast microsomes, triplicate assays, Eadie-Hofstee method
  Km: 2500 ± 100 µM

## OCC=Cc1ccc(O)cc1 [p-hydroxycinnamyl alcohol]
[1]; [3]
  activity of C3H toward substrate: no activity
